What was measured:
[1] = system: VEEV TC83; assay: microbe, parasite or virus in culture; assay type: cell-based; conditions: Venezuelan equine encephalitis virus, Vero 76, 48 h, read-out: VEEV TC83 EC50 nM
[2] = system: WEEV California; assay: microbe, parasite or virus in culture; assay type: cell-based; conditions: Western equine encephalitis virus, Vero 76, 48 h, read-out: WEEV California EC50 nM

Row | Compound | EC50 [1] [nM] | EC50 [2] [nM]
1 | COc1ccc(-n2c([C@H]3CCCN3)nc3c(Br)cc([N+](=O)[O-])cc3c2=O)cc1 [Example 80, (R)-8-bromo-3-(4-methoxyphenyl)-6-nitro-2-(pyrrolidin-2-yl) quinazolin-4 (3H)-one] | 1 to 50 | 1 to 50
2 | [N-]=[N+]=Nc1cccc(-n2c([C@H]3CCCN3)nc3ccc([N+](=O)[O-])cc3c2=O)c1 [Example 17, (R)-3-(3-azidophenyl)-6-nitro-2-(pyrrolidin-2-yl) quinazolin-4 (3H)-one] | 151 to 500 | > 1000
3 | COc1ccc(-n2c([C@H]3CCCN3)nc3cccc([N+](=O)[O-])c3c2=O)cc1 [Example 49, (R)-3-(4-methoxyphenyl)-5-nitro-2-(pyrrolidin-2-yl)quinazolin-4 (3H)-one] | > 1000 | > 1000
4 | COc1ccc(-n2c(C3CCCN3Cc3ccc(F)cc3)nc3c(C)cc([N+](=O)[O-])cc3c2=O)cc1F (stereo not shown) [Example 204, 3-(3-fluoro-4-methoxyphenyl)-2-(1-(4-fluorobenzyl)pyrrolidin-2-yl)-8-methyl-6-nitroquinazolin-4 (3H)-one] | 51 to 150 | 151 to 500
5 | COc1ccc(-n2c([C@H]3CCCN3)nc3ccc(C#N)cc3c2=O)cc1 [Example 14, (R)-3-(4-methoxyphenyl)-4-oxo-2-(pyrrolidin-2-yl)-3,4-dihydroquinazoline-6-carbonitrile] | 1 to 50 | 51 to 150
6 | COc1ccc(-n2c([C@@H]3CCCN3)nc3ccc(F)c(F)c3c2=O)cc1 [Example 30, (S)-5,6-difluoro-3-(4-methoxyphenyl)-2-(pyrrolidin-2-yl) quinazolin-4 (3H)-one] | > 1000 | > 1000
7 | CNCc1nc2ccc([N+](=O)[O-])cc2c(=O)n1-c1ccc(OC)cc1 [Example 210, 3-(4-methoxyphenyl)-2-((methylamino)methyl)-6-nitroquinazolin-4 (3H)-one] | > 1000 | > 1000
8 | COc1ccc(-n2c(C3CCCN3)nc3c(-c4ccc(N(C)C)nc4)cc(C#N)cc3c2=O)cc1F (stereo not shown) [Example 130, 8-(6-(dimethylamino)pyridin-3-yl)-3-(3-fluoro-4-methoxyphenyl)-4-oxo-2-(pyrrolidin-2-yl)-3,4-dihydroquinazoline-6-carbonitrile] | 1 to 50 | 1 to 50
9 | COc1ccc(-n2c(C3CCCN3)nc3c(-c4ccc(C(C)=O)nc4)cc(C#N)cc3c2=O)cc1F (stereo not shown) [Example 129, 8-(6-acetylpyridin-3-yl)-3-(3-fluoro-4-methoxyphenyl)-4-oxo-2-(pyrrolidin-2-yl)-3,4-dihydroquinazoline-6-carbonitrile] | 1 to 50 | 1 to 50
10 | O=c1c2cc([N+](=O)[O-])ccc2nc(C2CCCN2)n1-c1ccccc1Cl (stereo not shown) [Example 38, 3-(2-chlorophenyl)-6-nitro-2-(pyrrolidin-2-yl) quinazolin-4 (3H)-one] | > 1000 | > 1000
11 | COc1ccc(-n2c([C@@H]3CCCN3)nc3c(-c4ccncc4)cc([N+](=O)[O-])cc3c2=O)cc1F [Example 84, (S)-3-(3-fluoro-4-methoxyphenyl)-6-nitro-8-(pyridin-4-yl)-2-(pyrrolidin-2-yl) quinazolin-4 (3H)-one] | 1 to 50 | 1 to 50
12 | COc1ccc(-n2c([C@H]3CCCN3)nc3c(-c4ccnc(F)c4)cc(C#N)cc3c2=O)cc1F [Example 104, (R)-3-(3-fluoro-4-methoxyphenyl)-8-(2-fluoropyridin-4-yl)-4-oxo-2-(pyrrolidin-2-yl)-3,4-dihydroquinazoline-6-carbonitrile] | 1 to 50 | 1 to 50
13 | COc1ccc(-n2c([C@H]3C[C@H](F)CN3)nc3c(C)cc(C#N)cc3c2=O)cc1F [Example 54, 3-(3-fluoro-4-methoxyphenyl)-2-((2R,4S)-4-fluoropyrrolidin-2-yl)-8-methyl-4-oxo-3,4-dihydroquinazoline-6-carbonitrile] | 151 to 500 | 151 to 500
14 | COc1ccc(-n2c([C@@H]3CCCN3C3CCOCC3)nc3ccc(F)c(F)c3c2=O)cc1 [Example 31, (S)-5,6-difluoro-3-(4-methoxyphenyl)-2-(1-(tetrahydro-2H-pyran-4-yl)pyrrolidin-2-yl) quinazolin-4 (3H)-one] | > 1000 | > 1000
15 | COc1ccc(-n2c([C@@H]3CCCN3)nc3c(-c4ccncc4)cc(C#N)cc3c2=O)cc1F [Example 110, (S)-3-(3-fluoro-4-methoxyphenyl)-4-oxo-8-(pyridin-4-yl)-2-(pyrrolidin-2-yl)-3,4-dihydroquinazoline-6-carbonitrile] | 1 to 50 | 1 to 50
16 | COc1ccc(-n2c(-c3ccon3)nc3c(-c4ccc(C)nc4)cc(C#N)cc3c2=O)cc1F [Example 199, 3-(3-fluoro-4-methoxyphenyl)-2-(isoxazol-3-yl)-8-(6-methylpyridin-3-yl)-4-oxo-3,4-dihydroquinazoline-6-carbonitrile] | 501 to 1000 | > 1000
17 | COc1ccc(-n2c([C@H]3CCCN3)nc3c(-c4cncnc4)cc([N+](=O)[O-])cc3c2=O)cc1F [Example 88, (R)-3-(3-fluoro-4-methoxyphenyl)-6-nitro-8-(pyrimidin-5-yl)-2-(pyrrolidin-2-yl) quinazol-in-4 (3H)-one] | 1 to 50 | 1 to 50
18 | COc1ccc(-n2c(C3CC4CCC3N4)nc3c(-c4ccc(C)nc4)cc(C#N)cc3c2=O)cc1F (stereo not shown) [Example 143, 2-(7-azabicyclo[2.2.1]heptan-2-yl)-3-(3-fluoro-4-methoxyphenyl)-8-(6-methylpyridin-3-yl)-4-oxo-3,4-dihydroquinazoline-6-carbonitrile] | 51 to 150 | 151 to 500
19 | COc1ccc(-n2c(-c3cocn3)nc3c(-c4ccc(C)nc4)cc(C#N)cc3c2=O)cc1F [Example 197, 3-(3-fluoro-4-methoxyphenyl)-8-(6-methylpyridin-3-yl)-2-(oxazol-4-yl)-4-oxo-3,4-dihydroquinazoline-6-carbonitrile] | 501 to 1000 | > 1000
20 | COc1ncc(-n2c(C34CC(CN3)C4)nc3c(-c4ccc(C)nc4)cc(C#N)cc3c2=O)cn1 [Example 165, 2-(2-azabicyclo[2.1.1]hexan-1-yl)-3-(2-methoxypyrimidin-5-yl)-8-(6-methylpyridin-3-yl)-4-oxo-3,4-dihydroquinazoline-6-carbonitrile] | > 1000 | –
21 | COc1ccc(-n2c(C3C[C@@H](OC)CN3)nc3c(-c4ccc(C)nc4)cc(C#N)cc3c2=O)cc1F (stereo partly drawn) [Example 120, 3-(3-fluoro-4-methoxyphenyl)-2-((4R)-4-methoxypyrrolidin-2-yl)-8-(6-methylpyridin-3-yl)-4-oxo-3,4-dihydroquinazoline-6-carbonitrile] | 151 to 500 | –
22 | COc1ccc(-n2c([C@@H]3CC(F)(F)CN3)nc3c(-c4ccc(C)nc4)cc(C#N)cc3c2=O)cc1F [Example 183, (S)-2-(4,4-difluoropyrrolidin-2-yl)-3-(3-fluoro-4-methoxyphenyl)-8-(6-methylpyridin-3-yl)-4-oxo-3,4-dihydroquinazoline-6-carbonitrile] | 151 to 500 | –
23 | COc1ccc(-n2c([C@@H]3C[C@H](C(F)(F)F)CN3)nc3c(-c4ccc(C)nc4)cc(C#N)cc3c2=O)cc1F (racemic) [Example 190, cis-(±)-3-(3-fluoro-4-methoxyphenyl)-8-(6-methylpyridin-3-yl)-4-oxo-2-((2S,4S)-4-(trifluoromethyl)pyrrolidin-2-yl)-3,4-dihydroquinazoline-6-carbonitrile] | 1 to 50 | –
24 | COc1ccc(-n2c(C3CCCN3)nc3c(Oc4ccc(C)nc4)cc(C#N)cc3c2=O)cc1F (stereo not shown) [Example 191, 3-(3-fluoro-4-methoxyphenyl)-8-((6-methylpyridin-3-yl)oxy)-4-oxo-2-(pyrrolidin-2-yl)-3,4-dihydroquinazoline-6-carbonitrile] | 1 to 50 | –
25 | COc1ccc(-n2c([C@@H]3C[C@@](O)(C(F)(F)F)CN3)nc3c(-c4ccc(C)nc4)cc(C#N)cc3c2=O)cc1F [Example 192, 3-(3-fluoro-4-methoxyphenyl)-2-((2S,4S)-4-hydroxy-4-(trifluoromethyl)pyrrolidin-2-yl)-8-(6-methylpyridin-3-yl)-4-oxo-3,4-dihydroquinazoline-6-carbonitrile] | 1 to 50 | –
26 | COc1ccc(-n2c(C34CC(CN3)C4)nc3c(-c4ccc(C)nc4)cc(C#N)cc3c2=O)cc1F [Example 178, 2-(2-azabicyclo[2.1.1]hexan-1-yl)-3-(3-fluoro-4-methoxyphenyl)-8-(6-methylpyridin-3-yl)-4-oxo-3,4-dihydroquinazoline-6-carbonitrile] | 1 to 50 | –
27 | COc1c(F)cc(-n2c(C3CCCN3)nc3c(-c4ccc(C(C)=O)nc4)cc(C#N)cc3c2=O)cc1F (stereo not shown) [Example 177, 8-(6-acetylpyridin-3-yl)-3-(3,5-difluoro-4-methoxyphenyl)-4-oxo-2-(pyrrolidin-2-yl)-3,4-dihydroquinazoline-6-carbonitrile] | 1 to 50 | –
28 | COc1ccc(-n2c(C3CCCN3)nc3c(-c4ccc(CO)nc4)cc(C#N)cc3c2=O)cc1F (stereo not shown) [Example 181, 3-(3-fluoro-4-methoxyphenyl)-8-(6-(hydroxymethyl)pyridin-3-yl)-4-oxo-2-(pyrrolidin-2-yl)-3,4-dihydroquinazoline-6-carbonitrile] | 1 to 50 | –
29 | COc1c(F)cc(-n2c(C3CCCN3)nc3c(-c4ccc(C(C)(C)O)nc4)cc(C#N)cc3c2=O)cc1F (stereo not shown) [Example 182, 3-(3,5-difluoro-4-methoxyphenyl)-8-(6-(2-hydroxypropan-2-yl)pyridin-3-yl)-4-oxo-2-(pyrrolidin-2-yl)-3,4-dihydroquinazoline-6-carbonitrile] | 1 to 50 | –
30 | COc1ccc(-n2c([C@H]3CCCN3)nc3c(N4CCC(N5CCOCC5)CC4)cc(C#N)cc3c2=O)cc1F [Example 179, (R)-3-(3-fluoro-4-methoxyphenyl)-8-(4-morpholinopiperidin-1-yl)-4-oxo-2-(pyrrolidin-2-yl)-3,4-dihydroquinazoline-6-carbonitrile] | 1 to 50 | –
